# Test results published in ChEMBL document CHEMBL1143894, “Synthetic derivatives of the alpha- and beta-amyrin triterpenes and their antinociceptive properties” (2008).
# How the values were obtained:
# [1] = system: Mus musculus; test: Antinociceptive effect in sc dosed Swiss mouse assessed as inhibition of acetic acid-induced visceral pain; format: functional; conditions: read-out: ID50 (the source's name)
# [2] = system: Mus musculus; test: Antinociceptive effect in Swiss mouse assessed as inhibition of acetic acid-induced visceral pain at 0.0001 to 30 mg/kg, ip relative to morphine; format: functional; conditions: dose mg/kg 0.0001-30; route intraperitoneal
Compound,ED50 [1] [mg/kg],Inhibition [2] [%]
CC(=O)Oc1ccccc1C(=O)O [ASPIRIN],24,83
CN1CC[C@]23c4c5ccc(O)c4O[C@H]2[C@@H](O)C=C[C@H]3[C@H]1C5 [MORPHINE],0.67,
